One experiment deals with Pseudomonas putida. Kind of experiment: Antibacterial activity against Pseudomonas putida ATCC 12633 at <50 ug/ml measured every 1 hr. Type of experiment: functional, organism-based.
The subject of another experiment is Bacillus subtilis. Briefly: Antibacterial activity against Bacillus subtilis ATCC 23857 at <50 ug/ml measured every 1 hr. In kind it is functional, organism-based.
The subject of a further experiment is Saccharomyces cerevisiae. Kind of experiment: Antifungal activity against Saccharomyces cerevisiae assessed as growth inhibition measured every 4 hrs. Type of experiment: functional.
Experiment [1] has as its target DNA topoisomerase 2-alpha (Homo sapiens, UniProt P11388). Kind of experiment: Inhibition of topoisomerase-2 (unknown origin).
Experiment [2] is described as follows: Inhibition of DNA gyrase (unknown origin)-mediated DNA relaxation.
Experiment [3] in a line: Inhibition of DNA gyrase (unknown origin)-mediated DNA supercoiling.

In brackets after ≈: the same amount, converted by molar mass. Activity calls are given as the source filed them. No cut-off for these calls is given here.

By MIC is commonly meant the lowest concentration found to suppress growth. A word on the IC50: it is the concentration at which inhibition is half-maximal. A higher IC50 goes with weaker potency.

Sequence of DNA topoisomerase 2-alpha (P11388 whole entry): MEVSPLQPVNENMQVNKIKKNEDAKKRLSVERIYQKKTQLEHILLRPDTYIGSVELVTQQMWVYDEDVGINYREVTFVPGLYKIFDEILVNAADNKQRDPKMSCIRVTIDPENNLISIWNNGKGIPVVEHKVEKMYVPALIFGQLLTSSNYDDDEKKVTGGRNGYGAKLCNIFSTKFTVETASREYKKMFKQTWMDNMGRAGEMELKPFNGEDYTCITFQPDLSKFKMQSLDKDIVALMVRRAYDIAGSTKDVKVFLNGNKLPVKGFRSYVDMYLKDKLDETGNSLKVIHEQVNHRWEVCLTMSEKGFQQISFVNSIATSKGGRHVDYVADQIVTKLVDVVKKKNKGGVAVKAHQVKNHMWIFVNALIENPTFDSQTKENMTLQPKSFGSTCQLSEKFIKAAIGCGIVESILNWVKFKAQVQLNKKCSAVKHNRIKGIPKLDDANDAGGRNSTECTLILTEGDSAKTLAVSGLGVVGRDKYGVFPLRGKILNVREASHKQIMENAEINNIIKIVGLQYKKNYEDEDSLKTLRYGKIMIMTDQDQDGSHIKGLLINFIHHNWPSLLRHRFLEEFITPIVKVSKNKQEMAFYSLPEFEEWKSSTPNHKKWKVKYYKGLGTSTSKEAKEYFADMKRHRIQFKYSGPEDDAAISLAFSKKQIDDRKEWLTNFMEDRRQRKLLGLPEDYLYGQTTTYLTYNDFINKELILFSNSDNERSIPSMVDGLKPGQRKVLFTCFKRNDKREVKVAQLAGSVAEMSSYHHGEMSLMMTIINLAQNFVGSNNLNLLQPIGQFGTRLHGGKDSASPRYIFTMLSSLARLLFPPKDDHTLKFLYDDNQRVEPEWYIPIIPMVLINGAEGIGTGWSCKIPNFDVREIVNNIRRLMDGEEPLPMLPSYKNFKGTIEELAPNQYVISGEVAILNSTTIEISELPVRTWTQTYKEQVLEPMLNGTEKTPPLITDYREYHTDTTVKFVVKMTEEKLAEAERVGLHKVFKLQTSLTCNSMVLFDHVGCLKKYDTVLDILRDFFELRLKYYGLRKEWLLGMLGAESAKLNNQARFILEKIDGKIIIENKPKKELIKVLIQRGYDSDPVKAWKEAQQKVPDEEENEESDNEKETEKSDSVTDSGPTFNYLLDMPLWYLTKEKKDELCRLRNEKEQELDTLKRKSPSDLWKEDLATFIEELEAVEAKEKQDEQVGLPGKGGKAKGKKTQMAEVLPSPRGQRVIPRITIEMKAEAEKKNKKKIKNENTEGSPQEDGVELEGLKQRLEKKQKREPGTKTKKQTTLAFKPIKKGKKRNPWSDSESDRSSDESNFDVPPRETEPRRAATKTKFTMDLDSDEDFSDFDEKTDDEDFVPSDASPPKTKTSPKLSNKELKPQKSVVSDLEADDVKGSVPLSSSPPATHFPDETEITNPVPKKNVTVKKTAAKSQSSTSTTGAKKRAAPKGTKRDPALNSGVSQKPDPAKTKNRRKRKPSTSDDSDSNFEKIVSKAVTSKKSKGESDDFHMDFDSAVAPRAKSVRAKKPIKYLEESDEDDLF

With `Cc1c(O)cc(C[C@@H](O)CCCCCCCO)oc1=O`, the outcome with Pseudomonas putida and with Bacillus subtilis was inactive.
For `Cc1c(O)cc(C[C@@H](O)C[C@H](O)CCCCCCCO)oc1=O`, the outcome with Pseudomonas putida and with Bacillus subtilis was inactive.
For NYSTATIN, in the experiment with Saccharomyces cerevisiae, the MIC is less than 5 µg/mL.
`CCCCCCC[C@H]1Cc2cc(O)c(C(=O)O)c(O)c2[C@@H](O)O1`: the IC50 in experiment [1] was 3.08 µM; in experiment [2], 9 µg/mL (≈ 27.7 µM); in experiment [3], 6 µg/mL (≈ 18.5 µM).
On to `O=C(O)c1c(O)cc2c(c1O)[C@@H](O)O[C@@H](CCCCCCCO)C2`, for which the outcome in the experiment on Pseudomonas putida and in the experiment on Bacillus subtilis was inactive. Moreover, the MIC in the experiment on Saccharomyces cerevisiae is 100 µg/mL (≈ 294 µM).
Consider `O=C(O)c1c(O)cc2c(c1O)CO[C@@H](CCCCCCCO)C2`, for which the result in the experiment with Pseudomonas putida and with Bacillus subtilis was inactive. In the experiment on Saccharomyces cerevisiae, the MIC is 100 µg/mL (≈ 308 µM).
For the compound `C[C@@H](O)CCCCC[C@H]1Cc2cc(O)c(C(=O)O)c(O)c2CO1`, the outcome with Pseudomonas putida and with Bacillus subtilis was inactive. For the same compound, in the experiment on Saccharomyces cerevisiae, the MIC was 100 µg/mL (≈ 308 µM).
For `C[C@@H](O)CCCCC[C@H]1Cc2cc(O)c(C(=O)O)c(O)c2[C@@H](O)O1`, the result in the experiment on Pseudomonas putida and in the experiment with Bacillus subtilis was inactive. Besides, in the experiment with Saccharomyces cerevisiae, the minimum inhibitory concentration (MIC) turned out to be 100 µg/mL (≈ 294 µM).
For the compound `CCCCCCC[C@@H](O)C[C@H](O)Cc1cc(O)c(C)c(=O)o1`, the outcome in the experiment on Pseudomonas putida and with Bacillus subtilis was inactive.
